SMILES strings stand for the structures. Like-named read-outs stand apart in the source and are kept apart here. Where only a bound is given, the exact number is not on record here.

The target in data set [1] is purified phosphodiesterase. As to the kind of experiment: In vitro inhibition of purified phosphodiesterase. The format is biochemical. The source says:
(§1) The compounds of the invention and the prior art product fenspiride of the prior art used as reference substance were subjected to various tests described in ARZNEIMITTEL-FORSCHUNG/DRUG RESEARCH 37 (II), 12, 1354-1355 (1987), especially
to assays in vitro on the inhibition of purified phosphodiesterase.

Data set [2] concerns histamine-induced bronchoconstriction. Put plainly: Armitage test: histamine-induced bronchoconstriction test in guinea pigs. The note with it: guinea pig p.o. Format: in vivo.
From the text: as §1
the histamine-induced bronchoconstriction test in guinea pigs, […]

The subject of data set [3] is mice's ear edema. As to the kind of experiment: Mice's ear edema (technique of Young et al.). Format: in vivo. The settings on record: for decrease of the mice's ear edema: per os, 36 micromole/kg. The procedure:
The compounds of the present invention were also tested on the mice's ear edema according to the technique of John M. YOUNG et al., Journal of […], 82, 363-371 (1984). Administrated, per os, at a dose of 36 micromole/kg, the derivatives of the present invention provoke a decrease of the mice's ear edema of from 15 to 50% according to the compounds.

Data set [4] deals with experimental asthma induced in guinea pigs by antigen aerosols. Put plainly: Passive shock in guinea pigs (experimental asthma induced by antigen aerosols). The note with it: Cavia porcellus, read-out: Passive shock guinea pig ED50. Format: in vivo. The text has this:
to the determination of the passive shock resulting from the study of experimental asthma induced in guinea pigs by antigen aerosols and […]

Data set [5] can be described thus: Toxicity LD50 in mouse. The format is in vivo. The note with it: in vivo.
From the text: as §1

Data set [6] concerns mouse. Put plainly: Toxicity LD50 in mouse. The note with it: PO. The format is in vivo.
From the text: as §1

Setting [7] is: Cavia porcellus, po, dose 1 mg/kg, read-out: Armitage test % protection.
Where [8] appears, read: basal, read-out: Phosphodiesterase inhibition IC50 basal (converted).
The mark [9] stands for this setting: +calmoduline, read-out: Phosphodiesterase inhibition IC50 +calmoduline (converted).
Where [10] appears, read: Cavia porcellus, po, read-out: Armitage test % protection.

`O=C1Cc2cccc(F)c2N1CCN1CCC(OC(c2ccccc2)c2ccccc2)CC1` [Example 6, 1-(4-benzhydryloxypiperidinoethyl)-7-fluoro-oxindole]: the “Phosphodiesterase inhibition IC50 basal” value in data set [1] (basal) is given as “inactif”. Further, the inhibition in vivo at 1 mg/kg in data set [2] (setting [7]) came out at 36.6%.

Turning to `O=c1[nH]c2ccccc2n1CCCN1CCN(C(c2ccccc2)c2ccccc2)CC1` [oxatomide], in data set [3], the “decrease of the mice's ear edema” value was “lower than 15%”.

In general, ED50 refers to the midpoint of the dose-response relation. By LD50 is commonly meant the dose expected to kill half of the subjects tested. Lower therefore signals greater toxicity. What is called IC50 is the point on the concentration scale where inhibition reaches its midpoint. `O=C1c2ccccc2CN1CCN1CCC(OC(c2ccccc2)c2ccccc2)CC1` [Example 2, 2-(4-benzhydryloxypiperidinoethyl)isoxindole]: the ED50 in data set [4] (guinea pig, PO) is 2.5 to 5 mg/kg. The compound also gave an LD50 in data set [5] (PO) of more than 800 mg/kg. For the same compound, in data set [1] (setting [8]), the IC50 is more than 100 µM. Also, the inhibition in vivo at 1 mg/kg in data set [2] (setting [7]) was determined as 36%.

In the case of `O=C1c2ccc(F)cc2CN1CCCN1CCC(OC(c2ccccc2)c2ccccc2)CC1` [Example 19, 2-(4-benzhydryloxypiperidinopropyl)-5-fluoro-isoxindole], in data set [4] (guinea pig, PO), the ED50 came to 10 mg/kg. For the same compound, the LD50 in data set [5] (PO) was more than 800 mg/kg. Moreover, the figures for the IC50 in data set [1] (setting [9]) and in data set [1] (setting [8]) were 20 µM and more than 100 µM, respectively. For the same compound, the inhibition in vivo at 5 mg/kg in data set [2] (setting [10]) was determined as 68%.

Turning to `O=C1Cc2ccccc2N1CCCN1CCC(OC(c2ccccc2)c2ccccc2)CC1` [Example 5, 1-(4-benzhydryloxypiperidinopropyl)-oxindole], the IC50 in data set [1] (setting [9]) was 100 µM; in data set [1] (setting [8]), more than 100 µM. Moreover, in data set [2] (setting [7]), the inhibition in vivo at 1 mg/kg came out at 72.1%.

Take `CC1(C)C(=O)N(CCN2CCC(OC(c3ccccc3)c3ccccc3)CC2)c2ccccc21` [Example 14, 1-(4-benzhydryloxypiperidinoethyl)-3,3-dimethyloxindole]: the ED50 in data set [4] (guinea pig, PO) was more than 40 mg/kg. This compound came in with an LD50 in data set [5] (PO) of more than 800 mg/kg. For the same compound, the IC50 in data set [1] (setting [9]) is 20 µM; in data set [1] (setting [8]), 30 µM. Further, in data set [2] (setting [10]), the inhibition in vivo at 5 mg/kg stood at 70%.

Turning to `O=C1Cc2ccccc2N1CCN1CCC(OC(c2ccc(F)cc2)c2ccc(F)cc2)CC1` [Example 3, 1-(4-bis-para-fluorobenzhydryloxypiperidinoethyl)oxindole], the LD50 in data set [5] (PO) is less than 800 mg/kg. In data set [1] (basal), the “Phosphodiesterase inhibition IC50 basal” value is reported as “inactif”. Besides, the inhibition in vivo at 1 mg/kg in data set [2] (setting [7]) was 47.6%.

For the compound `O=C1c2ccc(F)cc2CN1CCN1CCC(OC(c2ccccc2)c2ccccc2)CC1` [Example 18, 2-(4-benzhydryloxypiperidinoethyl)-5-fluoro-isoxindole], in data set [4] (guinea pig, PO), the ED50 is 40 mg/kg. The LD50 in data set [5] (PO) was more than 800 mg/kg. The IC50 in data set [1] (setting [9]) is 20 µM; in data set [1] (setting [8]), 100 µM. Further, in data set [2] (setting [10]), the inhibition in vivo at 5 mg/kg is 68%.

As to `O=C1Cc2ccccc2N1CCN1CCC(OC(c2ccc(F)cc2)c2ccc(F)cc2)CC1` [Example 7, 1-(4-bis-para-fluorobenzhydryloxypiperidinoethyl)oxindole], the 50% effective dose (ED50) in data set [4] (po) is 2.5 to 5 mg/kg. Further, the “Toxicity LD50” value in data set [6] is less than 800 mg/kg. Also, the “Phosphodiesterase inhibition IC50 basal” value in data set [1] (basal) is reported as “inactif”. In data set [2] (dose 1 mg/kg), the “Armitage test % protection” value is “+50%”.

On to `COc1cc2c(cc1OC)C(=O)N(CCCN1CCC(OC(c3ccccc3)c3ccccc3)CC1)C2` [Example 12, 2-(4-benzhydryloxypiperidinopropyl)-5,6-dimethoxyisoxindole], for which, in data set [4] (guinea pig, PO), the ED50 worked out at 20 mg/kg. Also, the LD50 in data set [5] (PO) turned out to be 800 mg/kg. Further, the concentration for half-maximal inhibition (IC50) was 20 µM in data set [1] (setting [9]) and 70 µM in data set [1] (setting [8]). In data set [2] (setting [10]), the inhibition in vivo at 5 mg/kg turned out to be 79%.

Take `O=C1Cc2ccccc2N1CCCN1CCC(C(c2ccc(F)cc2)c2ccc(F)cc2)CC1` [Example 4, 1-(4-bis-para-fluorobenzhydrylpiperidinopropyl)-oxindole]: the ED50 in data set [4] (guinea pig, IP) was found to be 40 mg/kg. The LD50 in data set [5] (IP) was approximately 200 mg/kg. Further, the inhibition in vivo at 20 mg/kg in data set [2] (Cavia porcellus, po, dose 20 mg/kg, read-out: Armitage test % protection) was 59.4%.

For `O=c1[nH]c2ccccc2n1CCN1CCC(OC(c2ccccc2)c2ccccc2)CC1` [1[(2-oxo-3-benzimidazolinyl-ethyl]-4-benzhydryloxy-piperidine], the “decrease of the mice's ear edema” value in data set [3] was “lower than 15%”.

With `CC(C)C1C(=O)N(CCN2CCC(OC(c3ccccc3)c3ccccc3)CC2)c2ccccc21` (stereo not drawn) [Example 15, 1-(4-benzhydryloxypiperidinoethyl)-3-isopropyloxindole], the ED50 in data set [4] (guinea pig, PO) came out at 5 mg/kg. Also, the LD50 in data set [5] (PO) is more than 800 mg/kg. The IC50 in data set [1] (setting [9]) is 30 µM; in data set [1] (setting [8]), 100 µM. Also, the inhibition in vivo at 5 mg/kg in data set [2] (setting [10]) is 50%.

As to `O=C1Cc2ccccc2N1CCN1CCC(C(c2ccc(F)cc2)c2ccc(F)cc2)CC1` [Example 10, 1-(4-bis-para-fluorobenzhydrylpiperidinoethyl)oxindole], the LD50 in data set [5] (PO) was less than 800 mg/kg. For the same compound, the figures for the IC50 in data set [1] (setting [9]) and in data set [1] (setting [8]) were 100 µM and more than 100 µM, respectively. Moreover, the inhibition in vivo at 5 mg/kg in data set [2] (setting [10]) amounted to 78%.

As to `O=C1c2cc(F)ccc2CN1CCN1CCC(OC(c2ccccc2)c2ccccc2)CC1` [Example 20, 2-(4-benzhydryloxypiperidinoethyl)-6-fluoro-isoxindole], the median effective dose (ED50) in data set [4] (guinea pig, PO) was 40 mg/kg. The LD50 in data set [5] (PO) is more than 800 mg/kg. Further, the IC50 in data set [1] (setting [9]) is 20 µM; in data set [1] (setting [8]), more than 100 µM. In addition, in data set [2] (setting [10]), the inhibition in vivo at 5 mg/kg came out at 43%.

Take `O=C1Cc2ccccc2N1CCN1CCC(SC(c2ccccc2)c2ccccc2)CC1` [Example 9, 1-(4-benzhydrylthiopiperidinoethyl)-oxindole]: in data set [2] (setting [10]), the inhibition in vivo at 5 mg/kg is 60%.

Regarding `O=C1Cc2ccccc2N1CCN1CCC(OC(c2ccccc2)c2ccccc2)CC1` [Example 1, 1-(4-benzhydryloxypiperidinoethyl)oxindole], the values for the ED50 in data set [4] (ip) and in data set [4] (po) were 2.5 mg/kg and 5 mg/kg, respectively. In addition, the LD50 in data set [5] (IP) was approximately 200 mg/kg. Further, the “Phosphodiesterase inhibition IC50 basal” value in data set [1] (basal) is recorded as “inactif”. Besides, in data set [2] (setting [7]), the inhibition in vivo at 1 mg/kg amounted to 66%.

Regarding `O=C1Cc2cc(F)ccc2N1CCN1CCC(OC(c2ccccc2)c2ccccc2)CC1` [Example 8, 1-(4-benzhydryloxypiperidinoethyl)-5-fluoro-oxindole], the ED50 in data set [4] (po) was in the range of 2.5 to 5 mg/kg. The IC50 in data set [1] (setting [8]) was more than 10 µM. Moreover, the inhibition in vivo at 1 mg/kg in data set [2] (setting [7]) is 72%.

Consider `O=C1NCC2(CCN(CCc3ccccc3)CC2)O1` [Fenspiride, reference compound], for which the ED50 was determined as 5 mg/kg in data set [4] (guinea pig, IP) and 10 mg/kg in data set [4] (guinea pig, PO). Besides, in data set [5] (PO), the 50% lethal dose (LD50) is more than 800 mg/kg. Also, the IC50 in data set [1] (setting [9]) and in data set [1] (setting [8]) was more than 100 µM in each case. For the same compound, the “activity on mice's ear edema (in words)” value in data set [3] (same conditions and same dose (per os, 36 micromole/kg)) is on record as “no activity”. Moreover, the inhibition in vivo at 2.5 mg/kg in data set [2] (Cavia porcellus, po, dose 2,5 mg/kg, read-out: Armitage test % protection) is 69%.

In the case of `O=C1c2ccccc2CN1CCCN1CCC(OC(c2ccccc2)c2ccccc2)CC1` [Example 16, 2-(4-benzhydryloxypiperidinopropyl)-isoxindole], in data set [4] (guinea pig, PO), the ED50 amounted to 5 mg/kg. This compound also had an LD50 in data set [5] (PO) of more than 800 mg/kg. In addition, the results for the half-inhibitory concentration (IC50) in data set [1] (setting [9]) and in data set [1] (setting [8]) were 30 µM and more than 100 µM, respectively. For the same compound, the inhibition in vivo at 5 mg/kg in data set [2] (setting [10]) was 82%.

On to `O=C1Cc2cc(F)ccc2N1CCCN1CCC(OC(c2ccccc2)c2ccccc2)CC1` [Example 17, 1-(4-benzhydryloxypiperidinopropyl)-5-fluoro-oxindole], for which the ED50 in data set [4] (guinea pig, PO) came out at 40 mg/kg. Further, the LD50 in data set [5] (PO) was more than 800 mg/kg. The figures for the IC50 in data set [1] (setting [9]) and in data set [1] (setting [8]) were 10 µM and more than 100 µM, respectively. In addition, the inhibition in vivo at 5 mg/kg in data set [2] (setting [10]) was determined as 75%.

The values above are taken from patent publication US4968705A, “Benzopyrrolidinone compounds as bronchospastic agents” (Adir et Cie, priority 1988, dated 1990).
